This experiment deals with T1, ITK (Homo sapiens, UniProt Q08881).
T1 sequence (Q08881 1-620): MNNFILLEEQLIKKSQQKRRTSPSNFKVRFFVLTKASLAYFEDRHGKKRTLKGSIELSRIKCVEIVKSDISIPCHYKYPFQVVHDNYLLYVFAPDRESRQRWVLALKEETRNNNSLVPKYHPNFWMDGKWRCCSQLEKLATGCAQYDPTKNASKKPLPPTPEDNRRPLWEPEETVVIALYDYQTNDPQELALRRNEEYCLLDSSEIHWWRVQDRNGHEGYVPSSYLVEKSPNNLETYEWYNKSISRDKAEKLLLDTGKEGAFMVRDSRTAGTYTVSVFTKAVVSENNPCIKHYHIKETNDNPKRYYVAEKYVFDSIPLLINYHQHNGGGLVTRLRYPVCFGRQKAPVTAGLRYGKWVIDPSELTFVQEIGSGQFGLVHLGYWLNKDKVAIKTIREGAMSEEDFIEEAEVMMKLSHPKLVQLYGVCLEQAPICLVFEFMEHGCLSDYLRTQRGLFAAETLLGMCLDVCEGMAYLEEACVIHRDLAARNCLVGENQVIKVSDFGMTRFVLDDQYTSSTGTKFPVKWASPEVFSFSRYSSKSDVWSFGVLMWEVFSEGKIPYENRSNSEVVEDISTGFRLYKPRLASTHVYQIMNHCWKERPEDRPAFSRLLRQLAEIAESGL
As to the kind of experiment: ITK degradation HiBiT assay. The class given is cell-based. Also noted: expressed in transfected cells; host or cells: Molt4 (ATCC CRL-1552), monoclonal clone 1C10, engineered to carry the HiBiT tag. Conditions: 4 hrs; for Dmax: MOLT-4, C-terminal HiBiT-tagged Molt4 cells. Put shortly: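 C-terminal HiBiT-tagged Molt4 cells (clone 1C10) treated 4 h at 32° C with an 11-point, 5-fold compound dilution series (0.5% DMSO). HiBiT lytic detection with LgBiT then luminescence read; % ITK remaining versus concentration fit by four-parameter variable-slope model to give DC50 and Dmax.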
A general note: With HiBiT, luminescence reflects the tagged protein that the partner subunit can reach.

[1] abbreviates: C-terminal HiBiT-tagged Molt4 cells.

What is called DC50 is the concentration at which degradation of the target reaches its halfway point. Read a high DC50 as degradation only at high concentration. As usually defined, the Dmax is the greatest extent of degradation seen. Low readings indicate a partial loss of target, high ones a fuller loss of target. Molecule `C[C@@]12Cc3[nH]nc(C(=O)Nc4cnn([C@H]5CCN(C[C@H]6CCN(c7ccc(C8CCC(=O)NC8=O)cc7)C6)C[C@@H]5F)c4)c3C[C@@H]1C2(F)F` (stereo partly drawn) [Compound 98, (4aS,5aR)-N-(1-((3S,4S)-1-(((3R)-1-(4-(2,6-dioxopiperidin-3-yl)phenyl)pyrrolidin-3-yl)methyl)-3-fluoropiperidin-4-yl)-1H-pyrazol-4-yl)-5,5-difluoro-5a-methyl-1,4,4a,5,5a,6-hexahydrocyclopropa[f]indazole-3-carboxamide] displayed a Dmax of 89%. Also, it took 0.7 nM to reach half-maximal degradation under setting [1] (DC50).

With `C[C@@]12Cc3[nH]nc(C(=O)Nc4cnn([C@@H]5CCN(C[C@H]6CCN(c7ccc(C8CCC(=O)NC8=O)cc7)C6)C[C@H]5F)c4)c3C[C@@H]1C2(F)F` (stereo partly drawn) [Compound 99, (4aS,5aR)-N-(1-((3R,4R)-1-(((3R)-1-(4-(2,6-dioxopiperidin-3-yl)phenyl)pyrrolidin-3-yl)methyl)-3-fluoropiperidin-4-yl)-1H-pyrazol-4-yl)-5,5-difluoro-5a-methyl-1,4,4a,5,5a,6-hexahydrocyclopropa[f]indazole-3-carboxamide], the Dmax amounted to 85%. The molecule further yielded a DC50 under setting [1] of 3.7 nM.

For the molecule `C[C@@]12Cc3[nH]nc(C(=O)Nc4cnn([C@H]5CCN(C[C@@H]6CCN(c7ccc(C8CCC(=O)NC8=O)cc7)C6)C[C@@H]5F)c4)c3C[C@@H]1C2(F)F` (stereo partly drawn) [Compound 100, (4aS,5aR)-N-(1-((3S,4S)-1-(((3S)-1-(4-(2,6-dioxopiperidin-3-yl)phenyl)pyrrolidin-3-yl)methyl)-3-fluoropiperidin-4-yl)-1H-pyrazol-4-yl)-5,5-difluoro-5a-methyl-1,4,4a,5,5a,6-hexahydrocyclopropa[f]indazole-3-carboxamide], the Dmax stood at 86%. Under setting [1], the DC50 amounted to 1.7 nM.

With `C[C@@]12Cc3[nH]nc(C(=O)Nc4cnn([C@@H]5CCN(C[C@@H]6CCN(c7ccc(C8CCC(=O)NC8=O)cc7)C6)C[C@H]5F)c4)c3C[C@@H]1C2(F)F` (stereo partly drawn) [Compound 101, (4aS,5aR)-N-(1-((3R,4R)-1-(((3S)-1-(4-(2,6-dioxopiperidin-3-yl)phenyl)pyrrolidin-3-yl)methyl)-3-fluoropiperidin-4-yl)-1H-pyrazol-4-yl)-5,5-difluoro-5a-methyl-1,4,4a,5,5a,6-hexahydrocyclopropa[f]indazole-3-carboxamide], the Dmax stood at 87%. The molecule further showed a half-maximal degradation concentration (DC50) under setting [1] of 1.1 nM.

On to `C[C@@]12Cc3[nH]nc(C(=O)Nc4ccc(C5CCN(CC6CCN(c7ccc(C8CCC(=O)NC8=O)cc7)CC6)CC5)cc4)c3C[C@@H]1C2(F)F` (stereo partly drawn) [Compound 108, (4aS,5aR)-N-(4-(1-((1-(4-(2,6-dioxopiperidin-3-yl)phenyl)piperidin-4-yl)methyl)piperidin-4-yl)phenyl)-5,5-difluoro-5a-methyl-1,4,4a,5,5a,6-hexahydrocyclopropa[f]indazole-3-carboxamide], for which the Dmax was 88%. The same molecule gave a DC50 under setting [1] of 1.8 nM.

`C[C@@]12Cc3[nH]nc(C(=O)Nc4ccc(C5CCN(CC6CCN(c7ccc(C8CCC(=O)NC8=O)cn7)CC6)CC5)cc4)c3C[C@@H]1C2(F)F` (stereo partly drawn) [Compound 109, (4aS,5aR)-N-(4-(1-((1-(5-(2,6-dioxopiperidin-3-yl)pyridin-2-yl)piperidin-4-yl)methyl)piperidin-4-yl)phenyl)-5,5-difluoro-5a-methyl-1,4,4a,5,5a,6-hexahydrocyclopropa[f]indazole-3-carboxamide]: the Dmax came to 91%. Besides, the DC50 under setting [1] was found to be 0.73 nM.

For the molecule `C[C@@]12Cc3[nH]nc(C(=O)Nc4ccc(C5CCN(CC6CCN(c7ccc(C8CCC(=O)NC8=O)cc7)CC6)CC5)nc4)c3C[C@@H]1C2(F)F` (stereo partly drawn) [Compound 110, (4aS,5aR)-N-(6-(1-((1-(4-(2,6-dioxopiperidin-3-yl)phenyl)piperidin-4-yl)methyl)piperidin-4-yl)pyridin-3-yl)-5,5-difluoro-5a-methyl-1,4,4a,5,5a,6-hexahydrocyclopropa[f]indazole-3-carboxamide], the Dmax was 88%. For the same molecule, the DC50 under setting [1] amounted to 1.7 nM.

For `C[C@@]12Cc3[nH]nc(C(=O)Nc4ccc(C5CCN(CC6CCN(c7ccc(C8CCC(=O)NC8=O)cn7)CC6)CC5)nc4)c3C[C@@H]1C2(F)F` (stereo partly drawn) [Compound 111, (4aS,5aR)-N-(6-(1-((1-(5-(2,6-dioxopiperidin-3-yl)pyridin-2-yl)piperidin-4-yl)methyl)piperidin-4-yl)pyridin-3-yl)-5,5-difluoro-5a-methyl-1,4,4a,5,5a,6-hexahydrocyclopropa[f]indazole-3-carboxamide], the greatest degradation seen (Dmax) was 90%. This molecule gave a DC50 under setting [1] of 1.2 nM.

The molecule `C[C@@]12Cc3[nH]nc(C(=O)Nc4cnn(C5CCN(CC6CCN(c7ccc(N8CCC(=O)NC8=O)cn7)CC6)CC5)c4)c3C[C@@H]1C2(F)F` [Compound 113, (4aS,5aR)-N-{1-[1-({1-[5-(2,4-dioxo-1,3-diazinan-1-yl)pyridin-2-yl]piperidin-4-yl}methyl)piperidin-4-yl]-1H-pyrazol-4-yl}-5,5-difluoro-5a-methyl-1H,4H,4aH,5H,5aH,6H-cyclopropa[f]indazole-3-carboxamide] showed a Dmax of 80%. This molecule also showed a DC50 under setting [1] of 0.4 nM.

Consider `C[C@@]12Cc3[nH]nc(C(=O)Nc4cnn(C5CCN(CC6CCN(c7ccc([C@@H]8CCC(=O)NC8=O)cc7)CC6)CC5)c4)c3C[C@@H]1C2(F)F` [Compound 116, (4aS,5aR)-N-(1-{1-[(1-{4-[(3S)-2,6-dioxopiperidin-3-yl]phenyl}piperidin-4-yl)methyl]piperidin-4-yl}-1H-pyrazol-4-yl)-5,5-difluoro-5a-methyl-1H,4H,4aH,5H,5aH,6H-cyclopropa[f]indazole-3-carboxamide], for which, under setting [1], half-maximal degradation (DC50) was put at 0.9 nM and the “HiBiT DMax (%)” value worked out at 89%.

For `C[C@@]12Cc3[nH]nc(C(=O)Nc4cnn(C5CCN(CC6CCN(c7ccc([C@H]8CCC(=O)NC8=O)cc7F)CC6)CC5)c4)c3C[C@@H]1C2(F)F` [Compound 118, (4aS,5aR)-N-(1-{1-[(1-{4-[(3R)-2,6-dioxopiperidin-3-yl]-2-fluorophenyl}piperidin-4-yl)methyl]piperidin-4-yl}-1H-pyrazol-4-yl)-5,5-difluoro-5a-methyl-1H,4H,4aH,5H,5aH,6H-cyclopropa[f]indazole-3-carboxamide], the Dmax came to 77%. Under setting [1], this molecule registered a DC50 of 0.467 nM.

As for `CC1(C)CCc2c(C(=O)Nc3cnn(C4CCN(CC5CCN(c6ccc([C@@H]7CCC(=O)NC7=O)cc6)CC5)CC4)c3)n[nH]c2C1` [Compound 121, N-(1-{1-[(1-{4-[(3S)-2,6-dioxopiperidin-3-yl]phenyl}piperidin-4-yl)methyl]piperidin-4-yl}-1H-pyrazol-4-yl)-6,6-dimethyl-4,5,6,7-tetrahydro-1H-indazole-3-carboxamide], the Dmax stood at 76%. This molecule also gave a DC50 under setting [1] of 2.03 nM.

For `C[C@@]12Cc3[nH]nc(C(=O)Nc4cnn(C5CCC(CN6CCC(Oc7ccc(C8CCC(=O)NC8=O)cn7)CC6)CC5)c4)c3C[C@@H]1C2(F)F` (stereo partly drawn) [Compound 124, (4aS,5aR)-5,5-difluoro-5a-methyl-N-{1-[(1rs,4rs)-4-{[4-({5-[(3R)-2,6-dioxopiperidin-3-yl]pyridin-2-yl}oxy)piperidin-1-yl]methyl}cyclohexyl]-1H-pyrazol-4-yl}-1H,4H,4aH,5H,5aH,6H-cyclopropa[f]indazole-3-carboxamide], the Dmax came to 90%. Further, under setting [1], the DC50 was found to be 3.7 nM.
